IC50 data for 26 compounds are collected here from patent publication US20210101881A1 (Ancureall Pharmaceutical (Shanghai) Co., Ltd., priority 2018, published 2021).

The assay relates to MOLM13 cells. Nature of the assay: Growth inhibition of CDK9-positive cell line MOLM13 in vitro (CCK8/MTT assay). The note with it: Homo sapiens, MOLM-13; MOLM13 cells, cultured 3 to 6 days, CCK8; read-out: IC50 of the compound for inhibiting cell growth, MOLM13 cells. In kind it is cell-based, human. (In general: Tetrazolium dyes change colour on reduction, which living cells bring about.)

Regarding `NC(=O)c1cn(-c2ccnc(Nc3ccc(N4CCNCC4)cn3)n2)c2ccccc12` [Compound 133, 1-[2-(5-piperazin-1-yl-pyridin-2-ylamino)-pyrimidin-4-yl]-1H-indole-3-carboxamide], the IC50 – broadly, the midpoint of a concentration-inhibition curve – is greater than 1000 nM.

On to `NC(=O)c1cn(-c2ccnc(Nc3ccc(N4CCNCC4)cc3)n2)c2ccc(Br)cc12` [Compound 32, 5-bromo-1-[2-(4-piperazin-1-yl-phenylamino)-pyrimidin-4-yl]-1H-indole-3-carboxamide], for which the IC50 lay within 10 to 100 nM.

Turning to `COc1ccc(Nc2nccc(-n3cc(C(N)=O)c4ccccc43)n2)cc1` [Compound 17, 1-[2-(4-methoxy-phenylamino)-pyrimidin-4-yl]-1H-indole-3-carboxamide], the IC50 lay in the range of 100 to 1000 nM.

Consider `CN1CCN(c2ccc(Nc3nccc(-n4cc(C(N)=O)c5ccccc54)n3)cc2C#N)CC1` [Compound 49, 1-{2-[3-cyano-4-(4-methyl-piperazin-1-yl)-phenylamino]-pyrimidin-4-yl}-1H-indole-3-carboxamide], for which the half-inhibitory concentration (IC50) fell in the range of 1 to 10 nM.

Turning to `CCC(=O)N1CCN(c2cccc(Nc3nccc(-n4cc(C(N)=O)c5ccccc54)n3)c2)CC1` [Compound 128, 1-{2-[3-(4-propionyl-piperazin-1-yl)-phenylamino]-pyrimidin-4-yl}-1H-indole-3-carboxamide], the IC50 lay in the range of 10 to 100 nM.

Turning to `CC(=O)N1CCN(CCN(C)c2ccc(Nc3nccc(-n4cc(C(N)=O)c5ccccc54)n3)cc2)CC1` [Compound 74], the IC50 is 10 to 100 nM.

Take `NC(=O)c1cn(-c2ccnc(Nc3ccc(N4CCNCC4)cc3)n2)c2ncccc12` [Compound 135, 1-[2-(4-piperazin-1-yl-phenylamino)-pyrimidin-4-yl]-1H-pyrrolo[2,3-b]pyridine-3-carboxamide]: the IC50 was in the range of 100 to 1000 nM.

For `NC(=O)c1cn(-c2ccnc(Nc3ccc(N4CCNCC4)cc3)n2)c2c(F)cccc12` [Compound 31, 7-fluoro-1-[2-(4-piperazin-1-yl-phenylamino)-pyrimidin-4-yl]-1H-indole-3-carboxamide], the IC50 was 10 to 100 nM.

In the case of `COc1cc(Nc2nccc(-n3cc(C(N)=O)c4ccccc43)n2)ccc1N(C)CCN(C)C` [Compound 80, 1-(2-{4-[(2-dimethylamino-ethyl)-methyl-amino]-3-methoxy-phenylamino}-pyrimidin-4-yl)-1H-indole-3-carboxamide], the IC50 was in the range of 1 to 10 nM.

Turning to `CN(C)CCNc1ccc(Nc2nccc(-n3cc(C(N)=O)c4ccccc43)n2)cc1` [Compound 8, 1-{2-[4-(2-dimethylamino-ethylamino)-phenylamino]-pyrimidin-4-yl}-1H-indole-3-carboxamide], the IC50 lay within 10 to 100 nM.

`CN1CCN(c2ccc(Nc3nccc(-n4cc(C(N)=O)c5ccccc54)n3)cc2)CC1` [Compound 45, 1-{2-[4-(4-methyl-piperazin-1-yl)-phenylamino]-pyrimidin-4-yl}-1H-indole-3-carboxamide]: the 50% inhibitory concentration (IC50) lay within 10 to 100 nM.

Take `COc1cnc(Nc2cccc(N3CCN(C)CC3)c2)nc1-n1cc(C(N)=O)c2ccccc21` [Compound 123, 1-{5-methoxy-2-[3-(4-methyl-piperazin-1-yl)-phenylamino]-pyrimidin-4-yl}-1H-indole-3-carboxamide]: the IC50 was 1 to 10 nM.

`COc1ccc(Nc2ncc(Cl)c(-n3cc(C(N)=O)c4ccccc43)n2)cc1N1CCN(C)CC1` [Compound 122, 1-{5-chloro-2-[4-methoxy-3-(4-methyl-piperazin-1-yl)-phenylamino]-pyrimidin-4-yl}-1H-indole-3-carboxamide]: the IC50 lay in the range of 10 to 100 nM.

Consider `CNC(=O)c1cn(-c2ccnc(Nc3ccc(N4CCNCC4)cc3Cl)n2)c2ccccc12` [Compound 102, 1-[2-(2-chloro-4-piperazin-1-yl-phenylamino)-pyrimidin-4-yl]-1H-indole-3-carboxmethylamide], for which the concentration for half-maximal inhibition (IC50) was greater than 1000 nM.

Take `COc1ccc2c(c1)c(C(N)=O)cn2-c1nc(Nc2cccc(N3CCN(C4CCOC4)CC3)c2)ncc1F` (centres unmarked) [Compound 151, 1-(5-fluoro-2-{3-[4-(tetrahydro-furan-3-yl)-piperazin-1-yl]-phenylamino}-pyrimidin-4-yl)-5-methoxy-1H-indole-3-carboxamide]: the IC50 was in the range of 1 to 10 nM.

`NC(=O)c1cn(-c2ccnc(Nc3ccccn3)n2)c2ccccc12` [Compound 130, 1-[2-(pyridin-2-ylamino)-pyrimidin-4-yl]-1H-indole-3-carboxamide]: the IC50 is greater than 1000 nM.

As to `NC(=O)c1cn(-c2ccnc(Nc3ccc(NCCN4CCOCC4)cc3)n2)c2ccccc12` [Compound 9, 1-{2-[4-(2-morpholin-4-yl-ethylamino)-phenylamino]-pyrimidin-4-yl}-1H-indole-3-carboxamide], the IC50 fell in the range of 10 to 100 nM.

For `NC(=O)c1cn(-c2nc(Nc3cccc(N4CCOCC4)c3)ncc2F)c2ccccc12` [Compound 137, 1-[5-fluoro-2-(3-morpholin-4-yl-phenylamino)-pyrimidin-4-yl]-1H-indole-3-carboxamide], the IC50 is 1 to 10 nM.

Regarding `NC(=O)c1cn(-c2nc(Nc3ccc(N4CCNCC4)cn3)ncc2Cl)c2ccccc12` [Compound 134, 1-[5-chloro-2-(5-piperazin-1-yl-pyridin-2-ylamino)-pyrimidin-4-yl]-1H-indole-3-carboxamide], the IC50 was greater than 1000 nM.

With `CN1CCN(c2cc(F)cc(Nc3nccc(-n4cc(C(N)=O)c5ccccc54)n3)c2)CC1` [Compound 114, 1-{2-[3-fluoro-5-(4-methyl-piperazin-1-yl)-phenylamino]-pyrimidin-4-yl}-1H-indole-3-carboxamide], the IC50 lay in the range of 1 to 10 nM.

Turning to `CCN1CCN(c2ccc(Nc3ncc(F)c(-n4cc(C(N)=O)c5ccccc54)n3)cc2C)CC1` [Compound 57, 1-{2-[4-(4-ethyl-piperazin-1-yl)-3-methyl-phenylamino]-5-fluoro-pyrimidin-4-yl}-1H-indole-3-carboxamide], the IC50 was 1 to 10 nM.

As for `CN(C)CCCN(C)c1ccc(Nc2nccc(-n3cc(C(N)=O)c4ccccc43)n2)cc1Cl` [Compound 83, 1-(2-{3-chloro-4-[(3-dimethylamino-propyl)-methyl-amino]-phenylamino}-pyrimidin-4-yl)-1H-indole-3-carboxamide], the IC50 fell in the range of 10 to 100 nM.

Regarding `COc1cc(Nc2ncc(Cl)c(-n3cc(C(N)=O)c4ccccc43)n2)ccc1N(C)CCN(C)C` [Compound 87, 1-(2-{4-[(2-dimethylamino-ethyl)-methyl-amino]-3-methoxy-phenylamino}-5-chloro-pyrimidin-4-yl)-1H-indole-3-carboxamide], the IC50 was 1 to 10 nM.

With `CN1CCC(N2CCN(c3ccc(Nc4nccc(-n5cc(C(N)=O)c6ccccc65)n4)cc3F)CC2)CC1` [Compound 62, 1-(2-{3-fluoro-4-[4-(1-methyl-piperidin-4-yl)-piperazin-1-yl]-phenylamino}-pyrimidin-4-yl)-1H-indole-3-carboxamide], the IC50 was 10 to 100 nM.

Take `CN(C)c1ccc(Nc2nccc(-n3cc(C(N)=O)c4ccccc43)n2)cc1` [Compound 75, 1-[2-(4-dimethylamino-phenylamino)-pyrimidin-4-yl]-1H-indole-3-carboxamide]: the IC50 was 100 to 1000 nM.

For `NC(=O)c1cn(-c2nc(Nc3cccc(-n4cccn4)c3)ncc2F)c2ccccc12` [Compound 153, 1-[5-fluoro-2-(3-pyrazol-1-yl-phenylamino)-pyrimidin-4-yl]-1H-indole-3-carboxamide], the half-inhibitory concentration (IC50) lay in the range of 100 to 1000 nM.
